Consider three compounds from patent US20130115293A1, “Therapeutic Polymeric Nanoparticles Comprising Corticosteroids and Methods of Making and Using Same” (priority 2009, published 2013).

Where “and” joins values, the source holds several entries; their conditions need not be identical. Equal entries are not always repeated. Where two headings read alike, the source gives them in different places.

Data set [1] is described as follows: Rat study: pharmacokinetics, plasma levels by LCMS. It is filed as in vivo, Rats (male Sprague Dawley). As to conditions: single intravenous dose 0.5 mg/kg; for AUC(0-inf) / clearance / Cmax / Vd / half-life: male, Sprague Dawley, iv, 0.5 mg/kg. On the procedure:
Rats (male Sprague Dawley, approximately 300 g with jugular cannulae) were given a single intravenous dose of 0.5 mg/kg of budesonide or passively targeted nanoparticles (PTNP) encapsulating budesonide (prepared as in Example 7) at time=0. At various times after dosing, blood samples were collected from the jugular cannulae into tubes containing lithium heparin, and plasma was prepared. Plasma levels were determined by extraction of the budesonide from plasma followed by LCMS analysis.

Another data set has as its system indomethacin-induced IBD. The data set is described as follows: Rat model of inflammatory bowel disease (indomethacin induced). It is filed as in vivo, rats. As to conditions: for intestinal score decrease towards normal: days -1 to 3, scored day 4; for small intestine weight decrease toward normal: days -1 to 3, weighed day 4. On the procedure:
Budesonide and Budesonide PTNP were compared in a model of inflammatory bowel disease (IBD) as an efficacy model of inflammation. In this model, female rats were given two subcutaneous doses of 8 mg/kg indomethacin at 24 hour intervals to induce lesions resembling those occurring in Crohn's disease in the small intestine. Intravenous daily treatment with vehicle, budesonide (0.02, 0.2 or 2 mg/kg) or budesonide PTNP (0.02, 0.2 or 2 mg/kg) or oral daily treatment with Dexamethasone (0.1 mg/kg) was initiated one day before indomethacin treatment (day −1) and continued for 5 total days (days −1 to 3). Animals were euthanized on day 4, and a 10 cm area at risk in the small intestine was scored for gross pathology and weighed.
Using a disease scoring system in which a score of 0 is normal, and a score of 5 indicates death due to IBD symptoms, normal rats have an average score of 0, and an average intestinal weight of 0.488 g.

A short description of data set [2]: Solubility of drug in beta cyclodextrin (BCD) release medium. It is filed as physicochemical. On the procedure:
For in vitro release studies using the procedure of Example 3, beta cyclodextrin (BCD) was evaluated as a solubilizer for maintaining sink conditions during the release of ciclesonide into the release medium.

As for `CCCC1O[C@@H]2C[C@H]3[C@@H]4CCC5=CC(=O)C=C[C@]5(C)[C@H]4[C@@H](O)C[C@]3(C)[C@]2(C(=O)CO)O1` (some centres unmarked) [Budesonide, budesonide], the AUC(0-inf) in data set [1] (average of 6 rats, read-out: AUCinf (hr * ng/mL), Avg) stood at 0.148 µg·h/mL; in data set [1] (individual animals, read-out: AUCinf (hr * ng/mL), individual rats), 0.159 µg·h/mL. The clearance in data set [1] (average of 6 rats, read-out: Cl (mL/hr/kg), Avg (converted)) is 3480 mL/h/kg; in data set [1] (individual animals, read-out: Cl (mL/hr/kg), individual rats (converted)), 3140 mL/h/kg. Also, the Cmax amounted to 286 ng/mL in data set [1] (average of 6 rats, read-out: Cmax (ng/mL), Avg) and 324 ng/mL in data set [1] (individual animals, read-out: Cmax (ng/mL), individual rats). Also, the Vd in data set [1] (average of 6 rats, read-out: Vz (mL/kg), Avg) came to 3740 mL/kg; in data set [1] (individual animals, read-out: Vz (mL/kg), individual rats), 3310 mL/kg. Further, the half-life is 0.75 h in data set [1] (average of 6 rats, read-out: t1/2 (hr), Avg (converted)) and 0.73 h in data set [1] (individual animals, read-out: t1/2 (hr), individual rats (converted)). In addition, the “Cl (mL/hr/kg), individual rats” value in data set [1] (individual animals) is 3966 mL/h/kg and 4611 mL/h/kg and 3104 mL/h/kg and 3151 mL/h/kg and 2892 mL/h/kg. Further, in data set [1] (individual animals), the “Cmax (ng/mL), individual rats” value is 241 ng/mL and 226 ng/mL and 337 ng/mL and 306 ng/mL and 279 ng/mL. The “Vz (mL/kg), individual rats” value in data set [1] (individual animals) was 4291 mL/kg and 4937 mL/kg and 3104 mL/kg and 3191 mL/kg and 3627 mL/kg. For the same compound, the results for the “intestinal score decrease towards normal” value with indomethacin-induced IBD (0.02 mg/kg intravenous daily), in the data set with indomethacin-induced IBD (0.2 mg/kg intravenous daily) and in the data set with indomethacin-induced IBD (2 mg/kg intravenous daily) were 52%, 53% and 59%, respectively. Further, the “small intestine weight decrease toward normal” value in the data set with indomethacin-induced IBD (0.02 mg/kg intravenous daily) is reported as 52%; in the data set on indomethacin-induced IBD (0.2 mg/kg intravenous daily) it was 53%; in the data set on indomethacin-induced IBD (2 mg/kg intravenous daily), 59%.

As for `C[C@@H]1C[C@H]2[C@@H]3CCC4=CC(=O)C=C[C@]4(C)[C@@]3(Cl)[C@@H](O)C[C@]2(C)[C@@]1(OC(=O)c1ccco1)C(=O)CCl` [MOM, Mometasone Furoate], the entries for the “[MOM]” value in data set [2] (10% wt BCD in PBS) and in data set [2] ([…] wt BCD in PBS) were 93.5 µg/mL and 33.42 µg/mL, respectively.

Take `CC(C)C(=O)OCC(=O)[C@@]12O[C@H](C3CCCCC3)O[C@@H]1C[C@H]1[C@@H]3CCC4=CC(=O)C=C[C@]4(C)[C@H]3[C@@H](O)C[C@@]12C` [ciclesonide]: the “[ciclesonide]” value in data set [2] (10% wt BCD) stood at 133 µg/mL; in data set [2] ([…] wt BCD) it was 17.58 µg/mL.
